Source: patent US7078403B1, “Antiviral agents” (Biota Scientific Management Pty Ltd., priority 1999, dated 2006)

How the values were obtained:
[1] = tested on: human embryo lung (MRC-5) cells; assay: Cytotoxicity (CC50 or MTC) in uninfected MRC-5 cells; settings: unit not given
HRV type 1A = assay: Inhibition of viral cytopathic effect (CPE), visual scoring or neutral red, HRV type 1A in MRC-5 cells; format: cell-based, human rhinovirus; settings: for Activity on Rhinovirus Type 1A EC50: HRV type 1A in MRC-5 cells, CPE inhibition; for Activity on Rhinovirus Type 1A SI: selectivity index = CC50 or MTC divided by EC50, HRV type 1A, MRC-5 cells

| Structure (SMILES) | Activity on Rhinovirus Type 1A MTC [1] | Activity on Rhinovirus Type 1A EC50 (HRV type 1A) | Activity on Rhinovirus Type 1A SI (HRV type 1A) |
| --- | --- | --- | --- |
| CCON=Cc1ccc(OCCC2CCN(c3ccc(C(F)(F)F)nn3)CC2)cc1 [Compound 58] | >1 | 0.498 µg/mL | >2 |
| C=CCON=Cc1ccc(OCCN2CCN(c3ccc(C)nn3)CC2)cc1 [Compound 69] | >1 | 0.18 µg/mL | >5 |
| CON=Cc1cc(O)cc(OCCC2CCN(c3ccc(Cl)nn3)CC2)c1 [Compound 38] | >1 | 0.69 µg/mL | >1.45 |
| C=CCON=Cc1ccc(OCCC2CCCN(c3ccc(Cl)nn3)C2)cc1 (stereo not drawn) [Compound 141] | >1 | 0.166 µg/mL | >6 |
| CCON=Cc1cc(C)c(OCCCCCc2cc(C)no2)c(C)c1 [Compound 122] | >1 | 0.181 µg/mL | >5 |
| CON=Cc1ccc(OCCN2CCN(c3ccc(C)nn3)CC2)cc1 [Compound 67] | >1 | 0.04 µg/mL | >20 |
| CON=Cc1ccc(OCCC2CCCN(c3ccc(Cl)nn3)C2)cc1 (stereo not drawn) [Compound 140] | >1 | 0.016 µg/mL | >61 |
| CON=Cc1ccc(OCCCC2CCN(c3ccc(Cl)nn3)CC2)cc1 [Compound 89] | >1 | 0.005 µg/mL | >174 |
| C=CCON=Cc1cccc(OCCC2CCN(c3ccc(C)nn3)CC2)c1 [Compound 47] | >1 | 0.066 µg/mL | >15 |
| C=CCON=Cc1cccc(OCCN2CCN(c3ccc(C)nn3)CC2)c1 [Compound 72] | >1 | 0.16 µg/mL | >6 |
| C=CCON=Cc1ccc(OCCN2CCN(c3cccnn3)CC2)cc1 [Compound 66] | >1 | 0.05 µg/mL | >18 |
| C=CCON=Cc1ccc(OCCN2CCN(c3ccc(Cl)nn3)CC2)cc1 [Compound 74] | >1 | 0.02 µg/mL | >46 |
| CCON=Cc1cc(C)c(OCCCc2cc(C3CC3)no2)c(C)c1 [Compound 137] | >1 | 0.054 µg/mL | >18 |
| CCON=Cc1cc(C)c(OCCCCc2cc(CC)no2)c(C)c1 [Compound 138] | >1 | 0.07 µg/mL | >15 |
| CON=Cc1ccc(OCCCC2CCN(c3cccnn3)CC2)cc1 [Compound 102] | >1 | 0.059 µg/mL | >17 |
| CCON=Cc1ccc(OCCC2CCN(c3ccc(CO)nn3)CC2)cc1 [Compound 129] | >1 | 0.048 µg/mL | >20 |
| CON=Cc1cccc(OCC2CCN(c3ccc(Cl)nn3)CC2)c1 [Compound 60] | >1 | 0.183 µg/mL | >17 |
| C=CCON=Cc1cccc(OCC2CCN(c3ccc(Cl)nn3)CC2)c1 [Compound 62] | >1 | 0.067 µg/mL | >14 |

| Structure (SMILES) | Activity on Rhinovirus Type 1A MTC [1] | Activity on Rhinovirus Type 1A EC50 (HRV type 1A) | Activity on Rhinovirus Type 1A SI (HRV type 1A) |
| --- | --- | --- | --- |
| C=CCON=Cc1ccc(OCCC2CCN(c3ccc(C)nn3)CC2)cc1 [Compound 87] | >1 | 0.01 µg/mL | >51 |
| CCON=Cc1cccc(OCCN2CCN(c3cccnn3)CC2)c1 [Compound 65] | >1 | 0.21 µg/mL | >4.5 |
| CCON=Cc1cc(C)c(OCCCCCCc2cc(C)no2)c(C)c1 [Compound 120] | >1 | 0.04 µg/mL | >20 |
| C=CCON=Cc1ccc(OCCC2CCN(c3ccc(C)nn3)CC2)c(C)c1 [Compound 53] | 0.667 | <0.003 µg/mL | >208 |
| C=CCON=Cc1cccc(OCCN2CCN(c3ccc(Cl)nn3)CC2)c1 [Compound 77] | >1 | 0.003 µg/mL | >279 |
| CON=Cc1cccc(OCCN2CCN(c3ccc(Cl)nn3)CC2)c1 [Compound 75] | >1 | 0.01 µg/mL | >98 |
| CCON=Cc1cc(C)c(OCCCCCCCc2cc(C)no2)c(C)c1 [Compound 121] | >1 | 0.05 µg/mL | >16 |
| CCON=Cc1ccc(OCCC2CCN(c3ccc(-c4ccccc4)nn3)CC2)cc1 [Compound 56] | >10 | 2.31 µg/mL | >3 |
| CCO/N=C/c1ccc(Oc2cnc3cc(Cl)ccc3n2)cc1 [Compound 211] | >10 | 0.07 µg/mL | >151 |
| CCO/N=C/c1ccc(OCCC2CCN(c3ccc(Cl)nn3)CC2)cc1OC [Compound 50] | >1 | 0.008 µg/mL | >121.7 |
| CCON=Cc1cccc(OCCCC2CCN(c3ccc(Cl)nn3)CC2)c1 [Compound 92] | >1 | 0.20 µg/mL | >5 |
| C#CCON=Cc1cc(C)c(OCCCc2cc(C)no2)c(C)c1 [Compound 119] | >1 | 0.046 µg/mL | >21.4 |
| CCON=Cc1ccc(OCCC2CCN(c3ccc(C(F)(F)F)cn3)CC2)cc1 [Compound 84] | >1 | 0.05 µg/mL | >19.6 |
| C=CCON=Cc1cccc(OCCCC2CCN(c3cccnn3)CC2)c1 [Compound 107] | >1 | 0.062 µg/mL | >16 |
| CON=Cc1ccc(OCCCC2CCN(c3ccc(C)nn3)CC2)cc1 [Compound 94] | >1 | 0.024 µg/mL | >41 |
| CCON=Cc1cc(C)c(OCCCCc2cc(C)no2)c(C)c1 [Compound 123] | >1 | 0.060 µg/mL | >16 |
| CCON=Cc1cccc(OCC2CCN(c3ccc(Cl)nn3)CC2)c1 [Compound 61] | >1 | 0.058 µg/mL | >14 |
